We go through 37 compounds from ChEMBL document CHEMBL5325413, “Optimization of BAX trigger site activator BTSA1 with improved antitumor potency and in vitro ADMET properties” (Eur J Med Chem, 2023).

Active and inactive are the calls of the source. The rule behind the calls is not given here. Some results are limits rather than exact numbers.

The test system of one series is PC-3. Description: Antiproliferative activity against human PC-3 cells assessed as cell growth inhibition incubated for 72 hrs by MTT assay. It is filed as functional. Background: Tetrazolium assays rely on reduction of a dye to a coloured formazan, in cell work by metabolically active cells.
In series [1] the test system is A549. In words: Antiproliferative activity against human A549 cells assessed as cell growth inhibition incubated for 72 hrs by MTT assay. It is filed as functional.
In another series the test system is HCT-116. Description: Antiproliferative activity against human HCT-116 cells assessed as cell growth inhibition incubated for 72 hrs by MTT assay. In kind it is functional.
Series [2] deals with A549. In words: Induction of apoptosis in human A549 cells assessed as total apoptotic cells at 10 uM incubated for 48 hrs by Annexin V-FITC/PI staining based flow cytometry analysis (reference value: 2.86%). In kind it is functional. Background: In flow cytometry, cells or beads pass a laser one at a time.
Series [3] deals with A549. Description: Induction of apoptosis in human A549 cells assessed as late apoptotic cells at 10 uM incubated for 48 hrs by Annexin V-FITC/PI staining based flow cytometry analysis (reference value: 2.15%). In kind it is functional.
The test system of series [4] is A549. In words: Induction of apoptosis in human A549 cells assessed as early apoptotic cells at 10 uM incubated for 48 hrs by Annexin V-FITC/PI staining based flow cytometry analysis (reference value: 0.708%). It is filed as functional.
For series [5], the system named is A549. In words: Induction of apoptosis in human A549 cells assessed as live cells at 10 uM incubated for 48 hrs by Annexin V-FITC/PI staining based flow cytometry analysis (reference value: 96.4%). In kind it is functional.
The test system of series [6] is A549. Description: Induction of apoptosis in human A549 cells assessed as dead cells at 10 uM incubated for 48 hrs by Annexin V-FITC/PI staining based flow cytometry analysis (reference value: 0.739%). It is filed as functional.
For series [7], the system named is A549. In words: Induction of apoptosis in human A549 cells assessed as upregulation of BAX translocation at 20 uM incubated for 24 hrs by Western blot analysis. In kind it is functional, cell-based. (Immunoblotting shows a protein as a band on a membrane.)
For series [8] the following is noted: mouse, 1 h, 100 µM.
For series [9] the following is noted: human, 1 h, 100 µM.
For series [10] the following is noted: human, microsomes, 1 h, 100 µM.

As for `CN(C)C1CCN(C(=O)c2ccc(N3N=C(c4ccccc4)/C(=C/Nc4ccccc4)C3=O)cc2)CC1`, the GI50 (in general, the concentration at which growth is held to half of that of the control) in the series with PC-3 was over 20 µM; in the series on A549 [1], over 20 µM; in the series with HCT-116 it was 14.8 µM.

Regarding `CN(C)C1CCN(C(=O)c2ccc(N3N=C(c4ccccc4)C(=C4CCN(C(=O)c5ccc(O)cc5)CC4)C3=O)cc2)CC1`, the GI50 is over 50 µM with PC-3, 33.6 µM in the series with A549 [1] and 34.7 µM with HCT-116.

Take `O=C(c1ccc(N2N=C(c3ccccc3)/C(=N\Nc3ccccc3)C2=O)cc1)N1CCC(N2CCCCC2)CC1`: the GI50 is 12.8 µM with PC-3, 14.5 µM in the series on A549 [1] and 8.75 µM in the series on HCT-116.

As for `O=C(c1ccccc1)N1CCC(C2=NN(c3nc(-c4ccccc4)cs3)C(=O)/C2=N\Nc2nccs2)CC1`, the values for the GI50 in the series with PC-3, in the series with A549 [1] and in the series on HCT-116 were over 50 µM, 28.7 µM and over 50 µM, respectively.

For the compound `O=C1CCN(C(=O)c2ccc(N3N=C(c4ccccc4)/C(=N/Nc4ccccc4)C3=O)cc2)CC1`, the GI50 in the series on PC-3, in the series on A549 [1] and in the series on HCT-116 was over 50 µM in each case.

As for `CS(=O)(=O)N1CCN(C(=O)c2ccc(N3N=C(c4ccccc4)/C(=N/Nc4ccccc4)C3=O)cc2)CC1`, the GI50 in the series on PC-3, in the series with A549 [1] and with HCT-116 was over 50 µM each time.

Consider `O=C(c1ccc(N2N=C(c3ccccc3)/C(=N/Nc3ccccc3)C2=O)cc1)N1CCN(C2COC2)CC1`, for which the GI50 in the series on PC-3, with A549 [1] and in the series on HCT-116 was over 50 µM each time.

Regarding `N[C@@H]1CCCN(C(=O)c2ccc(N3N=C(c4ccccc4)/C(=N/Nc4ccccc4)C3=O)cc2)C1`, the GI50 stood at 5.39 µM in the series with PC-3, 8.38 µM in the series on A549 [1] and 2.96 µM with HCT-116. Also, the Activity with A549 [2] was 11.8%; in the series on A549 [3], 3.21%; in the series on A549 [4], 8.59%; in the series on A549 [5], 6.22%; in the series with A549 [6], 0.814%.

Consider `CN(C)C1CCN(C(=O)c2ccc(N3N=C(c4ccccc4)C(=C4CCN(C(=O)c5cscn5)CC4)C3=O)cc2)CC1`, for which the GI50 with PC-3 is 16.8 µM; with A549 [1], 16.6 µM; with HCT-116, 11.7 µM.

`CN1CCC(NC(=O)c2cccc(N3N=C(c4ccccc4)/C(=N/Nc4ccccc4)C3=O)c2)CC1`: the GI50 in the series on PC-3 was found to be 15 µM; with A549 [1] it was 9.06 µM; with HCT-116 it was 5.83 µM.

As to `CN(C)CCCNC(=O)c1ccc(N2N=C(c3ccccc3)/C(=N/Nc3ccccc3)C2=O)cc1`, the GI50 amounted to 3.76 µM in the series with PC-3, 3.32 µM in the series with A549 [1] and 2.14 µM with HCT-116.

`CN1CCN(C(=O)c2ccc(N3N=C(c4ccccc4)/C(=N/Nc4ccccc4)C3=O)cc2)CC1`: the concentration for 50% growth inhibition (GI50) was over 50 µM with PC-3, 22.9 µM with A549 [1] and 21.9 µM with HCT-116.

Regarding `O=C1/C(=N\Nc2ccccc2)C(c2ccccc2)=NN1c1ccccc1`, the GI50 in the series with PC-3, in the series on A549 [1] and in the series with HCT-116 was over 50 µM each time.

Consider `CN1CCC(NC(=O)c2ccc(N3N=C(c4ccccc4)/C(=N/Nc4ccccc4)C3=O)cc2)CC1`, for which the GI50 in the series on PC-3 turned out to be 6.45 µM; in the series with A549 [1], 4.44 µM; in the series on HCT-116, 4.13 µM.

Regarding `CC1=NN(c2ccc(C(=O)N3CCC(N(C)C)CC3)cc2)C(=O)/C1=N\Nc1ccccc1`, the GI50 is 4.94 µM with PC-3, 8.99 µM in the series on A549 [1] and 3.42 µM in the series with HCT-116. The Activity was 13.3% with A549 [2]; 1.57% in the series on A549 [3]; 11.7% with A549 [4]; 82.4% in the series on A549 [5]; 4.37% with A549 [6].

`CC(C)Oc1cc(F)ccc1N/N=C1\C(=O)N(c2ccc(C(=O)N3CCC(N(C)C)CC3)cc2)N=C1c1ccccc1`: the GI50 in the series on PC-3 came to 2.42 µM; with A549 [1] it was 6.13 µM; in the series with HCT-116 it was 2.2 µM.

On to `CN(C)C1CCN(C(=O)c2ccc(N3N=C(c4ccccc4)/C(=N/Nc4ccc(O)cc4)C3=O)cc2)CC1`, for which the GI50 in the series with PC-3 worked out at 3.04 µM; in the series on A549 [1], 2.19 µM; in the series with HCT-116, 2.67 µM. Moreover, the Activity in the series on A549 [2] came out at 76.2%; in the series on A549 [3], 16.2%; in the series with A549 [4], 60%; in the series with A549 [5], 21.5%; in the series with A549 [6] it was 2.33%. The result with A549 [7] was Active.

Turning to `O=C(c1cscn1)N1CCC(C2=NN(c3nc(-c4ccccc4)cs3)C(=O)/C2=N\Nc2nccs2)CC1`, the GI50 with PC-3, in the series with A549 [1] and in the series with HCT-116 was over 50 µM each time.

Take `CN(C)C1CCN(C(=O)c2ccc(N3N=C(c4ccccc4)/C(=N/Nc4ccc5ccccc5c4)C3=O)cc2)CC1`: the GI50 turned out to be 4.78 µM in the series with PC-3, 4.52 µM in the series on A549 [1] and 2.18 µM with HCT-116.

As for `CN(C)C1CCN(C(=O)c2cccc(N3N=C(c4ccccc4)/C(=N/Nc4ccccc4)C3=O)c2)CC1`, the GI50 in the series on PC-3 worked out at 10.7 µM; in the series with A549 [1], 2.68 µM; in the series with HCT-116 it was 5.23 µM.

Consider `O=C(c1ccc(N2N=C(c3ccccc3)/C(=N/Nc3ccccc3)C2=O)cc1)N1CCNCC1`, for which the GI50 in the series on PC-3, with A549 [1] and in the series with HCT-116 was over 50 µM in each case.

As to `COc1cc(N/N=C2\C(=O)N(c3ccc(C(=O)N4CCC(N(C)C)CC4)cc3)N=C2c2ccccc2)ccc1F`, the GI50 with PC-3 was 3.94 µM; in the series on A549 [1] it was 2.79 µM; with HCT-116 it was 3.37 µM. Besides, the Activity in the series on A549 [2] is listed as 61.8%; in the series on A549 [3], 22.2%; in the series with A549 [4] it was 39.6%; in the series with A549 [5], 35.4%; with A549 [6], 2.85%. The outcome with A549 [7] was Active.

Turning to `COc1cc(N/N=C2\C(=O)N(c3ccc(C(=O)N4CCC(N(C)C)CC4)cc3)N=C2c2ccccc2)cc(OC)c1OC`, the GI50 with PC-3 was found to be 5.77 µM; with A549 [1], 2.9 µM; in the series on HCT-116 it was 5.51 µM.

For the compound `CN(C)C1CCN(C(=O)c2ccc(N3N=C(c4ccccc4)/C(=N/Nc4ccc(OCc5ccccc5)cc4)C3=O)cc2)CC1`, the GI50 in the series on PC-3 is over 20 µM; with A549 [1] it was 5.03 µM; in the series with HCT-116, over 20 µM.

In the case of `C[C@]12CC[C@H]3[C@@H](CCC4=CC(=O)CC[C@@]43C)[C@@H]1CC[C@@H]2O` [TESTOSTERONE], the CLH in [8] is 0.086244 L/h/kg; in [9] it was 5.73 L/h/kg. In addition, the CLint in [10] was found to be 106 µL/min/mg.

With `CN(C)C1CCN(C(=O)c2ccc(N3N=C(c4ccccc4)/C(=N/Nc4cccnc4)C3=O)cc2)CC1`, the GI50 in the series on PC-3 amounted to 5.17 µM; with A549 [1] it was 4.22 µM; in the series on HCT-116 it was 3.88 µM.

On to `CN(C)C1CCN(C(=O)c2ccc(N3N=C(c4ccccc4)/C(=N/Nc4cc(C(F)(F)F)cc(C(F)(F)F)c4)C3=O)cc2)CC1`, for which the figures for the GI50 with PC-3, in the series on A549 [1] and in the series on HCT-116 were 1.15 µM, 4.54 µM and 1.76 µM, respectively. The Activity in the series with A549 [2] is recorded as 44.8%; with A549 [3] it was 10.1%; with A549 [4], 34.7%; in the series on A549 [5], 54.3%; with A549 [6], 0.996%.

With `O=C(c1ccc(N2N=C(c3ccccc3)/C(=N/Nc3ccccc3)C2=O)cc1)N1CCC2(CC1)CNC2`, the figures for the GI50 in the series with PC-3, in the series with A549 [1] and in the series with HCT-116 were 5.6 µM, 4.69 µM and 4.12 µM, respectively.

Take `CN(C)C(=O)c1ccc(N2N=C(c3ccccc3)/C(=N/Nc3ccccc3)C2=O)cc1`: the GI50 in the series on PC-3, with A549 [1] and in the series on HCT-116 was over 50 µM throughout.

Turning to `O=C(c1ccc(N2N=C(c3ccccc3)/C(=N/Nc3ccccc3)C2=O)cc1)N1CCCCC1`, the GI50 in the series with PC-3, in the series with A549 [1] and in the series on HCT-116 was over 50 µM in each case.

For `CN(C)C1CCN(C(=O)c2ccc(N3N=C(c4ccccc4)CC3=O)cc2)CC1`, the GI50 in the series with PC-3, in the series on A549 [1] and with HCT-116 was over 50 µM throughout.

`CC(C)(C)OC(=O)N1CCC2(CC1)CN(C(=O)c1ccc(N3N=C(c4ccccc4)/C(=N\Nc4ccccc4)C3=O)cc1)C2`: the GI50 with PC-3 was 19.9 µM; in the series on A549 [1] it was 25.5 µM; in the series with HCT-116, 17.7 µM.

As to `CC1CCN(C(=O)c2cccc(N3N=C(c4ccccc4)/C(=N/Nc4ccccc4)C3=O)c2)CC1`, the GI50 in the series on PC-3 was determined as 2.41 µM; with A549 [1], 2.72 µM; in the series with HCT-116, 3.44 µM.

Regarding `CN(C)C1CCN(C(=O)c2ccc(N3N=C(c4ccccc4)/C(=C/NCc4ccccc4)C3=O)cc2)CC1`, the GI50 in the series with PC-3, with A549 [1] and in the series on HCT-116 was over 20 µM in each case.

In the case of `CN(C)C1CCN(C(=O)c2ccc(N3N=C(c4ccccc4)C(=C4CCN(C(=O)c5cc6cc(Cl)ccc6[nH]5)CC4)C3=O)cc2)CC1`, the GI50 is over 50 µM with PC-3, 43.6 µM in the series with A549 [1] and over 50 µM with HCT-116.

Take `CN(C)C1CCN(C(=O)c2ccc(N3N=C(C4CC4)/C(=N/Nc4ccccc4)C3=O)cc2)CC1`: the GI50 is 7.14 µM in the series on PC-3, 2.15 µM with A549 [1] and 4.38 µM in the series with HCT-116.

As for `O=C(NCc1ccncc1)c1ccc(N2N=C(c3ccccc3)/C(=N/Nc3ccccc3)C2=O)cc1`, the values for the GI50 in the series on PC-3, in the series on A549 [1] and in the series on HCT-116 were 12.6 µM, 11.5 µM and 17.5 µM, respectively.
